For the assay, the system named is T1, Hyperpolarization-activated cyclic nucleotide-gated (HCN) channels (native, isoform not resolved).
T1 construct: native HCN current (Ih) in striatal cholinergic interneurons, acute slices
Briefly: whole-cell voltage-clamp of Ih in striatal slices, concentration-response. Type of assay: cell-based, Mus musculus. An excerpt: whole-cell voltage-clamp of Ih in striatal slices, concentration-response on Hyperpolarization-activated cyclic nucleotide-gated (HCN) channels (native, isoform not resolved) | Dependence of Ih density (as measured on Figure 3E) on ZD7288 concentration.

pIC50: −log10 of the molar value.

One compound from paper PMC7380940, “Alterations in the intrinsic properties of striatal cholinergic interneurons after dopamine lesion and chronic L-DOPA” (eLife, 2020) can be followed below.

`CC/[N+](c1ccccc1)=c1\cc(NC)n(C)c(C)n1` [ZD7288] showed a pIC50 of 5.85.
